The test system of experiment [1] is Du-145 prostate tumor cells. Kind of experiment: MTT-microculture tetrazolium cell viability assay / induction of apoptosis in Du-145. Type of experiment: cell-based. To be noted: for IC50: Homo sapiens, Du-145 prostate tumor cells, MTT, 72 hours incubation, drug concentration giving 50% inhibition of growth, read-out: IC50 (μM), Effects of Diarylheptanoids on Inducing Apoptosis in DU-145 Cancer Cell Line; for activity in bioassay: inducing apoptosis in Du-145 cancer cell line (in words): bioassay-directed fractionation of Alpinia officinarum. As for the experimental part: The rhizomes of Alpinia officinarum were purchased from Nuherbs Co. (Oakland, Calif.). Du-145 prostate tumor cells were obtained from the American Type Culture Collection (ATCC). Cells were maintained at 37° C. in an atmosphere of 5% CO2 and grown in Roswell Park Memorial Institute (RPMI) media 1640 (GIBCO/BRL) with 10% fetal bovine serum and with 5% penicillin and streptomycin.
The powdered roots of Alpinia officinarum were extracted with methanol and concentrated under vacuum using rotary evaporation. The dried residue was then partitioned with hexanes, ethyl acetate and 1-butanol successively. The three extracts were subjected to bioassays.
The dried ethyl acetate extract was then chromatographed on a normal phase silica gel column (2.5×30 cm) to perform bioassay-directed fractionation. The extract was first dissolved in methanol and loaded onto the column packing material. The prepared extract was then placed on top of the column and elution was performed using a solvent mixture of chloroform/methanol with an increasing amount of methanol (30:1, 20:1, 10:1, 5:1, 0:100; each 1000 mL). Successive fractions were collected and tested for biological activity. […] This fraction was then rechromatographed on a semipreparative Zorbax Rx-C18 reversed phase HPLC column (9.4 mm×240 mm, 5 μm) purchased from MacMod Analytical (Chadds Ford, Pa.). Compounds were eluted by an isocratic solvent system: 55% A, water with 0.05% formic acid (FA); 45% B, ACN (v/v) at a flow rate of 4 mL/min. The wavelength monitored was 205 nm. Successive fractions (1-3) were collected and sent for biological testing again.
Cellular growth in the presence or absence of experimental agents was determined using the modified method as previously described MTT-microculture tetrazolium assay (World Health Organization (ED.), Medicinal Plants in China, WHO Regional Publications, 1989, 21). Briefly, rapidly growing cells were harvested, counted, and inoculated at the appropriate concentrations (100 μL volume) into 96-well micro-titer plates using a multichannel pipet. After 24 hours, AO-1 to AO-5 were applied in different concentrations to triplicate culture wells, and cultures were incubated for 72 hours at 37° C. MTT ( Sigma, St. Louis, Mo.) was prepared at 2 mg/ml in Phosphate buffered saline (PBS) and 50 μL were added to microculture wells. After 4 hour incubation at 37° C., […] were removed from each well, and 150 μL of 100% DMSO were added to solubilize the MTT-formazan product. After thorough mixing with a mechanical plate mixer, absorbence was measured at 570 nm using a Dynatech microplate reader. […] This assay is based on the reduction of MTT tetrazolium salt to a formazan product by the metabolic activity of live cells and which was measured in a multiwell scanning spectrophotometer. Cell line growth and growth inhibition were expressed in terms of mean absorbance units and following the substraction of mean background absorbance.

A short description of experiment [2]: Radical-scavenging activity by DPPH. To be noted: for IC50: DPPH 63.4 μM in methanol, absorbance at 515 nm, steady state, read-out: IC50 (μM) of Diarylheptanoids in Scavenging DPPH Free Radicals; for free radical scavenging, DPPH data (in words): DPPH assay. An excerpt:
In this example, the 2,2-diphenyl-1-picrylhydrazyl (DPPH) method was used to explore the capacity of five isolated compounds of the invention to act as free radical scavengers. The DPPH assay has been extensively used to test the free radical scavenging ability of various chemicals (Brand-williams, W. et al., Wiss. Technol. 1995, 28, 25-30; Dinis, T. C. et al., Arch. Biochem. Biophys. 1994, 315, 161-169.)
This method was adapted from that of Brand-Williams, et al. (Brand-williams, W.; Cuvelier, M. E.; Berset, C. Lebensm. Wiss. Technol. 1995, 28, 25-30.). At least seven different concentrations were prepared for each purified compound. 25 μl pure compound solution and 975 μL DPPH solution (63.4 μM) were mixed together and left in the dark for 30 min. Each sample was triplicated and the values were averaged. The absorbance of the samples was measured at 515 nm against methanol solution without DPPH as the blank reference. The absorbance was measured every 30 min until the reaction reached a plateau. The reaction kinetics were then plotted using the above data and the percentage of DPPH remaining at the steady state was obtained. IC50 values were determined by extrapolation from linear regression analysis.
DPPH, 2,2-Diphenyl-1-picrylhydrazyl (DPPH.), is a stable radical in methanol solution. In its radical form, DPPH. absorbs at 515 nm, but the absorption ceases upon reduction by an antioxidant (AH) or a radical species (R.) (Brand-williams, W.; Cuvelier, M. E.; Berset, C. Lebensm. Wiss. Technol. 1995, 28, 25-30.). The concentration of tested chemicals needed to decrease the initial DPPH. concentration by 50% (IC50) is a parameter widely used to measure the antioxidant potential (Kanner, J.; Frankel, E.; German, B.; Kinsella, J. e. J. Agric. Food Chem. 1994, 42, 64-69, Vinson, J. A.; Dabbagh, Y. A.; Serry, M. M. J. Agric. Food Chem. 1995a, 43,2800-2802.). The lower the IC50, the higher the free radical scavenging power.

Where only a bound is given, the exact number is not on record here.

In the case of `COc1cc(CCC(CC(=O)CCc2ccccc2)OC)ccc1O` (stereo not shown) [AO-2, 5-methoxy-7-(4″-hydroxy-3″methoxyphenyl)-1-phenyl-3-heptanone], in experiment [1], the half-inhibitory concentration (IC50) stood at 88 µM and the “activity in bioassay: inducing apoptosis in Du-145 cancer cell line (in words)” value (“activity in bioassay: inducing apoptosis” for short) was “some activity”. Moreover, in experiment [2], the half-maximal inhibitory concentration (IC50) came to 12.7 µM and the “free radical scavenging, DPPH data (in words)” value was “very good free radical scavengers”.
For the molecule `O=C(/C=C/CCc1ccccc1)CCc1ccccc1` [AO-5, 1,7-diphenylhept-4-en-3-one], the results for the IC50 in experiment [1] and in experiment [2] were 32 µM and greater than 5000 µM, respectively.
Take `O=C(/C=C/CCc1ccc(O)cc1)CCc1ccccc1` [AO-3, 7-(4″-hydroxyphenyl)-1-phenyl-hept-4-en-3-one]: in experiment [1], the IC50 is 20 µM and the “activity in bioassay: inducing apoptosis” value is given as “some activity”. Moreover, the IC50 in experiment [2] is greater than 1000 µM.
As to `COc1cc(CCC(O)CC(=O)CCc2ccccc2)ccc1O` (stereo not shown) [AO-1, 5-Hydroxy-7-(4″-hydroxy-3″methoxyphenyl)-1-phenyl-3-heptanone], in experiment [1], the IC50 was 100 µM and the “activity in bioassay: inducing apoptosis” value is on record as “biological activity to some level”. Also, in experiment [2], the IC50 came out at 11.4 µM and the “free radical scavenging, DPPH data (in words)” value is on record as “very good free radical scavengers”.

A word on the IC50: it is the midpoint of a concentration-inhibition curve.

(Values after patent US20050215635A1, “Diarylheptanoid compounds and uses thereof” (priority 2004, published 2005).)
